Values joined by “and” are separate entries in the source; they are usually repeats but may differ in a detail not shown here. Identical values can stand only once. Like-named read-outs stand apart in the source and are kept apart here.
Tests used:
VP16-TraR [1] = assay: Transient GUS reporter assay in carrot protoplasts with VP16-TraR effector and tra box reporter; assay type: cell-based, Agrobacterium tumefaciens; settings: Table 8: TraA8(4X) +TraR
Description: Carrot protoplasts were transfected with the TraA8 (4×)-GUS reporter construct with the 35S-VP16-TraR activator gene and tested for GUS induction by application of wild type AHL and the various AHL analogs described in Example 8.

VP16-TraR [2] = assay: as above; assay type: cell-based, Agrobacterium tumefaciens; design: 4, 5, 6 (replicate GUS activities, +inducer): unit not given here
TraR = molecular target: T1, TraR (Agrobacterium tumefaciens, UniProt P33905); assay: β-galactosidase reporter assay in yeast (TraA8 element, galactose-inducible TraR); assay type: cell-based; settings: strain YPH499, c1.5 and 6, 3 copies of TraA8 element; 5 hrs growth on galactose; 50 μM C8-HSL
T1 construct: expressed in transfected cells; host or cells: Saccharomyces cerevisiae (strain 204142; YPH499)
T1 sequence (P33905 whole entry): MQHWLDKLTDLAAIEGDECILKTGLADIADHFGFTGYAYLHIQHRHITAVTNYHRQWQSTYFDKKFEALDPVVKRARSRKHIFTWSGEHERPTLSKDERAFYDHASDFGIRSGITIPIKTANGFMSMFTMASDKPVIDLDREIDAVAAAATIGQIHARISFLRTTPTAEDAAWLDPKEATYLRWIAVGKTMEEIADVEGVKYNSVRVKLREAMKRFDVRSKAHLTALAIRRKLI

VP16-TraR [3] = system: VP16-TraR
Method: Transgenic Arabidopsis plants containing TraA8(3×)-GUS reporter and 35S-VP16-TraR activator genes (pMON53077) were analyzed for induction of GUS activity. […] GUS assays were conducted as described by Jefferson et al. (supra).
In addition, detached leaves incubated for 24 hours in MS medium with or without 100 μM HSL were visualized for induction of GUS activity after staining.

tra box-GUS reporter = settings: for +inducer (average GUS activity): 25 [i M OOHL]
Method: Plasmids for transfection were isolated and purified using Megaprep plasmid DNA isolation kit (Qiagen). Carrot protoplasts for transfections were prepared from carrot cell suspension culture and transfected with purified DNA as described (Ulmasov et al., Plant Cell 7:1611–1623, 1995). Briefly, 10 μg of the reporter plasmid and 5 μg of the effector plasmid were incubated with 10^6 protoplasts for five minutes at the room temperature in the presence of polyethylene glycol-calcium solution. After diluting approximately 10-fold with the culture medium, the protoplasts were incubated in the dark for 36 hours either in the presence or absence of the inducer 3-oxohexanoyl-homoserine lactone (OHHL, racemic mixture of the L- and D-isomers, purchased from Sigma Chemical Co., St Louis, Mo.). After incubation, protoplasts were collected by low-speed centrifugation, lysed and the level of GUS activity was measured using fluorometric GUS assay (Jefferson et al., EMBO J. 6:3901–3907, 1987).
Ten μg of the reporter plasmid (pMON53031), and indicated amount of the 35S effector plasmid per reaction was used for transfection in triplicate. […] The “− inducer” and “+ inducer” columns are averages of the GUS activities.
These constructs were tested for background GUS activity and TraR responsiveness in carrot protoplasts.

[4] = Table 6 lane 20: TraA9(3X), cl.8 +HA-VP16-TraR, 12.5 μM C8-AHL

Question: What does the source list for `CCCCCC(=O)CC(=O)N[C@H]1CCOC1=O` [C8-HSL, 3-oxooctanoyl-L-homoserine lactone]?
Answer: 1, 2, 3 (replicate GUS activities at the lower concentration) (VP16-TraR [1]; 5 μM): 2820.7 and 3124.7 and 3110.7; 4, 5, 6 (replicate GUS activities at the higher concentration) (VP16-TraR [1]; 12.5 μM): 4386.9 and 4031.2 and 4010.3; 1, 2, 3 (replicate GUS activities at the lower concentration) (VP16-TraR [1]; 25 μM): 8183.1 and 7890.1 and 6855.5; 4, 5, 6 (replicate GUS activities at the higher concentration) (VP16-TraR [1]; 75 μM): 8036.8 and 7647.1 and 8243.2; 4, 5, 6 (replicate GUS activities, +inducer) (VP16-TraR [2]; Table 5 lane 2: tra box (6X), cl.7 +HA-VP16-TraR, 12.5 μM C8-AHL): 933.8 and 1033.2 and 995.1; 4, 5, 6 (replicate GUS activities, +inducer) (VP16-TraR [2]; Table 5 lane 4: traA1(3X), cl.35 +HA-VP16-TraR, 12.5 μM C8-AHL): 1896.4 and 1959.7 and 1968.4; 4, 5, 6 (replicate GUS activities, +inducer) (VP16-TraR [2]; Table 5 lane 6: traA2(3X), cl.43 +HA-VP16-TraR, 12.5 μM C8-AHL): 2198.3 and 2341.9 and 2304.6; 4, 5, 6 (replicate GUS activities, +inducer) (VP16-TraR [2]; Table 5 lane 8: traA3(3X), cl.4 +HA-VP16-TraR, 12.5 μM C8-AHL): 117.3 and 111.1; 4, 5, 6 (replicate GUS activities, +inducer) (VP16-TraR [2]; Table 5 lane 10: traA4(3X), cl.23 +HA-VP16-TraR, 12.5 μM C8-AHL): 142.9 and 112.2 and 113.5; 4, 5, 6 (replicate GUS activities, +inducer) (VP16-TraR [2]; Table 5 lane 12: traA5(3X), cl.2 +HA-VP16-TraR, 12.5 μM C8-AHL): 21.3 and 18.5 and 21.8; 4, 5, 6 (replicate GUS activities, +inducer) (VP16-TraR [2]; Table 5 lane 14: traA6(3X), cl.21 +HA-VP16-TraR, 12.5 μM C8-AHL): 64.8 and 64.7; 4, 5, 6 (replicate GUS activities, +inducer) (VP16-TraR [2]; Table 5 lane 16: traA7(3X), cl.15 +HA-VP16-TraR, 12.5 μM C8-AHL): 237.5 and 226.8 and 240.1; 4, 5, 6 (replicate GUS activities, +inducer) (VP16-TraR [2]; Table 5 lane 18: traA8(3X), cl.4 +HA-VP16-TraR, 12.5 μM C8-AHL): 828.8 and 874.3 and 960.9; 4, 5, 6 (replicate GUS activities, +inducer) (VP16-TraR [2]; Table 5 lane 20: traA9(3X), cl.8 +HA-VP16-TraR, 12.5 μM C8-AHL): 65.4 and 65.3 and 60.5; 4, 5, 6 (replicate GUS activities, +inducer) (VP16-TraR [2]; Table 6 lane 2: Tra box(3X), cl.5 +HA-VP16-TraR, 12.5 μM C8-AHL): 1350.6 and 1542.2 and 1835.6; 4, 5, 6 (replicate GUS activities, +inducer) (VP16-TraR [2]; Table 6 lane 4: TraA1(3X), cl.35 +HA-VP16-TraR, 12.5 μM C8-AHL): 1426.4 and 1490.9 and 1763.9; 4, 5, 6 (replicate GUS activities, +inducer) (VP16-TraR [2]; Table 6 lane 6: TraA2(3X), cl.43 +HA-VP16-TraR, 12.5 μM C8-AHL): 1757.9 and 2255.2 and 2158.0; 4, 5, 6 (replicate GUS activities, +inducer) (VP16-TraR [2]; Table 6 lane 8: TraA3(3X), cl.4 +HA-VP16-TraR, 12.5 μM C8-AHL): 106.3 and 96.1; 4, 5, 6 (replicate GUS activities, +inducer) (VP16-TraR [2]; Table 6 lane 10: TraA4(3X), cl.23 +HA-VP16-TraR, 12.5 μM C8-AHL): 108.1 and 108.3 and 112.6; 4, 5, 6 (replicate GUS activities, +inducer) (VP16-TraR [2]; Table 6 lane 12: TraA5(3X), cl.2 +HA-VP16-TraR, 12.5 μM C8-AHL): 91.6 and 72.7 and 82.6; 4, 5, 6 (replicate GUS activities, +inducer) (VP16-TraR [2]; Table 6 lane 14: TraA6(3X), cl.21 +HA-VP16-TraR, 12.5 μM C8-AHL): 1.4 and 1.9 and 6.3; 4, 5, 6 (replicate GUS activities, +inducer) (VP16-TraR [2]; Table 6 lane 16: TraA7(3X), cl.15 +HA-VP16-TraR, 12.5 μM C8-AHL): 216.9 and 217.5 and 275.9; 4, 5, 6 (replicate GUS activities, +inducer) (VP16-TraR [2]; Table 6 lane 18: TraA8(3X), cl.4 +HA-VP16-TraR, 12.5 μM C8-AHL): 1774.0 and 1839.9 and 1663.3; 4, 5, 6 (replicate GUS activities, +inducer) (VP16-TraR [2]; [4]): 307.2 and 197.9 and 183.9; +inducer (average GUS activity) (VP16-TraR [2]; [4]): 229.7; 4, 5, 6 (replicate GUS activities, +inducer) (VP16-TraR [2]; Table 6 lane 22: TraA10(3X), cl.17 +HA-VP16-TraR, 12.5 μM C8-AHL): 621.1 and 629.5 and 672.7; 4, 5, 6 (replicate GUS activities, +inducer) (VP16-TraR [2]; Table 6 lane 24: TraA-1(3X), cl.14 +HA-VP16-TraR, 12.5 μM C8-AHL): 25.0 and 30.0; 4, 5, 6 (replicate GUS activities, +inducer) (VP16-TraR [2]; Table 7 lane 3: TraA8(4X), cl.16 +HA-VP16-TraR, 12.5 μM C8-AHL): 1190.9 and 991.1 and 863.8; 4, 5, 6 (replicate GUS activities, +inducer) (VP16-TraR [2]; Table 7 lane 5: TraA8(3X), cl.4(60 μg) +TraR, 12.5 μM C8-AHL): 1867.2 and 1559.0 and 1569.7; 4, 5, 6 (replicate GUS activities, +inducer) (VP16-TraR [2]; Table 7 lane 8: TraA8(3X), cl.4(25 μg) + TraR + TraM, 12.5 μM C8-AHL): 13.5 and 9.6 and 12.1; 4, 5, 6 (replicate GUS activities, +inducer) (VP16-TraR [2]; Table 7 lane 9: TraA8(3X), cl.4 (25 μg) + TraR + TraS, 12.5 μM C8-AHL): 279.4 and 224.4 and 241.0; 4, 5, 6 (replicate GUS activities, +inducer) (VP16-TraR [2]; Table 7 lane 10: TraA8(3X), cl.4 (25 μg) + TraR + CAT, 12.5 μM C8-AHL): 698.2 and 680.1 and 908.4; 4, 5, 6 (replicate GUS activities, +inducer) (VP16-TraR [2]; Table 8 lane 3: TraA8(4X) +TraR, 25 μM (row 0/25 μM)): 7034.5 and 8005.8 and 7531.5; β-gal activity (chemiluminescent assay) (TraR): strong induction; histochemical GUS staining (VP16-TraR [3]; detached caulline leaves, 24 hours in MS medium, 100 μM HSL): uniform induced activity; +Inducer (GUS activity) (VP16-TraR [3]; plant s3553-1): 556.56; +Inducer (GUS activity) (VP16-TraR [3]; plant s3553-2): 554.08; +Inducer (GUS activity) (VP16-TraR [3]; plant s3554-1): 3101.09; +Inducer (GUS activity) (VP16-TraR [3]; plant s3554-2): 3098.61; +Inducer (GUS activity) (VP16-TraR [3]; plant s3559-1): 599.93; +Inducer (GUS activity) (VP16-TraR [3]; plant s3559-2): 597.45; +Inducer (GUS activity) (VP16-TraR [3]; plant s3562-1): 75.93; +Inducer (GUS activity) (VP16-TraR [3]; plant s3562-2): 73.45; +Inducer (GUS activity) (VP16-TraR [3]; plant s3570-1): 4831.21; +Inducer (GUS activity) (VP16-TraR [3]; plant s3570-2): 4828.73; +Inducer (GUS activity) (VP16-TraR [3]; plant s3573-1): 768.65; +Inducer (GUS activity) (VP16-TraR [3]; plant s3573-2): 766.17; +Inducer (GUS activity) (VP16-TraR [3]; plant s3575-1): 3453.00; +Inducer (GUS activity) (VP16-TraR [3]; plant s3575-2): 3450.52; +Inducer (GUS activity) (VP16-TraR [3]; plant s3582-1): 559.86; +Inducer (GUS activity) (VP16-TraR [3]; plant s3582-2): 557.38; +Inducer (GUS activity) (VP16-TraR [3]; plant s3594-1): 515.77; +Inducer (GUS activity) (VP16-TraR [3]; plant s3594-2): 513.29; +Inducer (GUS activity) (VP16-TraR [3]; plant wild-type): 2.48; +inducer (average GUS activity) (tra box-GUS reporter; Table 4: min35S-GUS): 6.1; +inducer (average GUS activity) (tra box-GUS reporter; Table 4: pMON53031 alone): 265; 4, 5, 6 (replicate GUS activities, +inducer) (tra box-GUS reporter; Table 5 lane 1: tra box (6X), cl.7 alone (35S-CAT), 12.5 μM C8-AHL): 569.8 and 647.3 and 643.6

From patent publication US7202085B2, “Control of gene expression in eukaryotic cells” (Calgene LLC, priority 1999, dated 2007)
